Laboratory results: PubChem BioAssay AID1259407 (Chemical Carcinogenesis Research Information System (CCRIS), 2018)
Calls of active or inactive are those of the source. No rule for the calls is given here.

Test system: CCRIS mutagenicity, Ames/micronucleus/aberration tests
Assay: CCRIS mutagenicity studies
[1] = Test System: AMES SALMONELLA TYPHIMURIUM, Strain/Indicator: TA98, Metabolic Activation: NONE, Method: PREINCUBATION
[2] = Test System: AMES SALMONELLA TYPHIMURIUM, Strain/Indicator: TA100, Metabolic Activation: NONE, Method: PREINCUBATION

CCOc1ccccc1C(N)=O
mutagenic call (End Point: IN VITRO CHROMOSOMAL ABERRATIONS, Test System: CHL/IU CELLS, Metabolic Activation: NONE): active; positive (structural changes) | mutagenic call (End Point: IN VITRO MICRONUCLEUS, Test System: CHL/IU CELLS, Metabolic Activation: NONE): active; positive

O=C(O)CN(CC(=O)O)C1C[C@H]1N(CC(=O)O)CC(=O)O (stereo not given in full)
mutagenic call (Test System: CHINESE HAMSTER V-79, Strain/Indicator: V-79/OUABAIN, Metabolic Activation: NONE, Method: STANDARD PLATE): active; positive | mutagenic call (Test System: UDS RODENT CELLS, Strain/Indicator: THY INCORP (NON-S-PHASE), Metabolic Activation: NONE, Method: AUTORADIOGRAPHY): active; positive

N#C/C=C/C#N
mutagenic call (End Point: IN VITRO CHROMOSOMAL ABERRATIONS, Test System: CHO-LB CELLS, Metabolic Activation: NONE): active; positive | mutagenic call (End Point: IN VITRO CHROMOSOMAL ABERRATIONS, Test System: CHO-LB CELLS, Metabolic Activation: RAT, LIVER, S-9, AROCLOR 1254): inactive; negative | mutagenic call (Test System: AMES SALMONELLA TYPHIMURIUM, Strain/Indicator: TA97, Metabolic Activation: HAMSTER, LIVER, S-9, AROCLOR 1254 (10%), Method: PREINCUBATION): inactive; negative | mutagenic call (Test System: AMES SALMONELLA TYPHIMURIUM, Strain/Indicator: TA97, Metabolic Activation: HAMSTER, LIVER, S-9, AROCLOR 1254 (30%), Method: PREINCUBATION): inactive; negative | mutagenic call (Test System: AMES SALMONELLA TYPHIMURIUM, Strain/Indicator: TA97, Metabolic Activation: NONE, Method: PREINCUBATION): inactive; negative | mutagenic call (Test System: AMES SALMONELLA TYPHIMURIUM, Strain/Indicator: TA97, Metabolic Activation: RAT, LIVER, S-9, AROCLOR 1254 (10 OR 30%), Method: PREINCUBATION): inactive; negative | mutagenic call (Test System: AMES SALMONELLA TYPHIMURIUM, Strain/Indicator: TA98, Metabolic Activation: HAMSTER, LIVER, S-9, AROCLOR 1254 (10%), Method: PREINCUBATION): inactive; negative | mutagenic call (Test System: AMES SALMONELLA TYPHIMURIUM, Strain/Indicator: TA98, Metabolic Activation: HAMSTER, LIVER, S-9, AROCLOR 1254 (30%), Method: PREINCUBATION): inactive; negative | mutagenic call [1]: inactive; negative | mutagenic call (Test System: AMES SALMONELLA TYPHIMURIUM, Strain/Indicator: TA98, Metabolic Activation: RAT, LIVER, S-9, AROCLOR 1254 (10%), Method: PREINCUBATION): inactive; negative | mutagenic call (Test System: AMES SALMONELLA TYPHIMURIUM, Strain/Indicator: TA98, Metabolic Activation: RAT, LIVER, S-9, AROCLOR 1254 (30%), Method: PREINCUBATION): inactive; negative | mutagenic call (Test System: AMES SALMONELLA TYPHIMURIUM, Strain/Indicator: TA98, Metabolic Activation: RAT, LIVER, S-9, FUMARONITRILE (AUTOINDUCTION), Method: PREINCUBATION): inactive; negative | mutagenic call (Test System: AMES SALMONELLA TYPHIMURIUM, Strain/Indicator: TA98, Metabolic Activation: RAT, LIVER, S-9, PHENOBARBITAL, Method: PREINCUBATION): inactive; negative | mutagenic call (Test System: AMES SALMONELLA TYPHIMURIUM, Strain/Indicator: TA100, Metabolic Activation: HAMSTER, LIVER, S-9, AROCLOR 1254 (10%), Method: PREINCUBATION): inactive; negative | mutagenic call (Test System: AMES SALMONELLA TYPHIMURIUM, Strain/Indicator: TA100, Metabolic Activation: HAMSTER, LIVER, S-9, AROCLOR 1254 (30%), Method: PREINCUBATION): inactive; negative | mutagenic call [2]: inactive; negative | mutagenic call (Test System: AMES SALMONELLA TYPHIMURIUM, Strain/Indicator: TA100, Metabolic Activation: RAT, LIVER, S-9, AROCLOR 1254 (10%), Method: PREINCUBATION): inactive; negative | mutagenic call (Test System: AMES SALMONELLA TYPHIMURIUM, Strain/Indicator: TA100, Metabolic Activation: RAT, LIVER, S-9, AROCLOR 1254 (30%), Method: PREINCUBATION): inactive; negative | mutagenic call (Test System: AMES SALMONELLA TYPHIMURIUM, Strain/Indicator: TA100, Metabolic Activation: RAT, LIVER, S-9, FUMARONITRILE (AUTOINDUCTION), Method: PREINCUBATION): inactive; negative | mutagenic call (Test System: AMES SALMONELLA TYPHIMURIUM, Strain/Indicator: TA100, Metabolic Activation: RAT, LIVER, S-9, PHENOBARBITAL, Method: PREINCUBATION): inactive; negative | mutagenic call (Test System: AMES SALMONELLA TYPHIMURIUM, Strain/Indicator: TA1535, Metabolic Activation: HAMSTER, LIVER, S-9, AROCLOR 1254 (10%), Method: PREINCUBATION): inactive; negative | mutagenic call (Test System: AMES SALMONELLA TYPHIMURIUM, Strain/Indicator: TA1535, Metabolic Activation: HAMSTER, LIVER, S-9, AROCLOR 1254 (30%), Method: PREINCUBATION): inactive; negative | mutagenic call (Test System: AMES SALMONELLA TYPHIMURIUM, Strain/Indicator: TA1535, Metabolic Activation: NONE, Method: PREINCUBATION): inactive; negative | mutagenic call (Test System: AMES SALMONELLA TYPHIMURIUM, Strain/Indicator: TA1535, Metabolic Activation: RAT, LIVER, S-9, AROCLOR 1254 (10 OR 30%), Method: PREINCUBATION): inactive; negative

CCN(CC)c1cc(NC(C)=O)c(N=Nc2c(Cl)cc([N+](=O)[O-])cc2[N+](=O)[O-])cc1OC
mutagenic call (End Point: IN VITRO CHROMOSOMAL ABERRATIONS, Test System: CHL CELLS, Metabolic Activation: RAT, LIVER, S-9, SODIUM PHENOBARBITAL AND 5,6-BENZOFLAVONE): inactive; negative

Cc1ccc2c(c1)C(=O)c1ccccc1C2=O
mutagenic call (Test System: AMES SALMONELLA TYPHIMURIUM, Strain/Indicator: TA97, Metabolic Activation: NONE, Method: STANDARD PLATE): inactive; negative | mutagenic call (Test System: AMES SALMONELLA TYPHIMURIUM, Strain/Indicator: TA97, Metabolic Activation: RAT, LIVER, S-9, PCB, Method: STANDARD PLATE): inactive; negative | mutagenic call [1]: inactive; negative | mutagenic call (Test System: AMES SALMONELLA TYPHIMURIUM, Strain/Indicator: TA98, Metabolic Activation: NONE, Method: STANDARD PLATE): inactive; negative | mutagenic call (Test System: AMES SALMONELLA TYPHIMURIUM, Strain/Indicator: TA98, Metabolic Activation: RAT, LIVER, S-9, PCB, Method: PREINCUBATION): inactive; negative | mutagenic call (Test System: AMES SALMONELLA TYPHIMURIUM, Strain/Indicator: TA98, Metabolic Activation: RAT, LIVER, S-9, PCB, Method: STANDARD PLATE): inactive; negative | mutagenic call [2]: inactive; negative | mutagenic call (Test System: AMES SALMONELLA TYPHIMURIUM, Strain/Indicator: TA100, Metabolic Activation: NONE, Method: STANDARD PLATE): inactive; negative | mutagenic call (Test System: AMES SALMONELLA TYPHIMURIUM, Strain/Indicator: TA100, Metabolic Activation: RAT, LIVER, S-9, PCB, Method: PREINCUBATION): inactive; negative | mutagenic call (Test System: AMES SALMONELLA TYPHIMURIUM, Strain/Indicator: TA100, Metabolic Activation: RAT, LIVER, S-9, PCB, Method: STANDARD PLATE): inactive; negative

CC(C)c1ccccc1OC(=O)N(C)N=O
mutagenic call (Test System: E. COLI WP2, Strain/Indicator: WP2, Metabolic Activation: NONE, Method: STANDARD PLATE): active; positive
